# Assays:
# Type in all cases: in vivo
# planthopper = test: Insecticidal test I; conditions: planthopper on rice seedling, 3 days after spraying
# Description: A seedling of rice plant was grown in a 12 cm pot until the plant height reaches 15 cm. Ten individuals of planthopper, which had passed 3 to 5 days after emergence, were applied per one rice plant. The rice plant was trial-cultured for three repetitions. With 1 L of water, an insecticide was mixed in such an amount that the concentration of each of the compounds at the time of spraying was the amount indicated in Table 4, thereby preparing the spray liquid of insecticide. This spray liquid was sprayed on the leaf surface of the seedling of rice plant attached with planthoppers in the application amount indicated in Table 4. After air drying, the seedling of rice plant sprayed with the spray liquid was covered with a wire gauze cylinder. Three days later, the number of surviving insects was measured, and the insect killing rate (indicated as the “insect killing rate I” in Table 4) was calculated by the following equation. It means that the effect of agricultural chemical (insecticidal effect) is high as the value of the insect killing rate is high.
# Insect killing rate (%)=(the number of surviving insects in non-treated area−the number of surviving insects in treated area)/the number of surviving insects in non-treated area×100
# cotton aphid = test: Insecticidal test II; conditions: cotton aphid on cabbage leaf, 1 day after spraying
# Description: A cabbage seedling was grown in a 12 cm pot until to be a ten-leaf stage. The leaf of cabbage was cut and placed in a petri dish with a diameter of 9 cm, and 15 individuals of cotton aphid were trial cultured for three repetitions. With 1 L of water, the insecticide was mixed in such an amount that the concentration of each of the compounds at the time of spraying was the amount indicated in Table 4, thereby preparing the spray liquid of insecticide. This spray liquid was sprayed to the leaf surface of the cabbage attached with cotton aphids in the application amount indicated in Table 4. After air drying, the petri dish was covered with a lid, and an oxygen permeable seal was sealed around the petri dish so as to prevent the escape of the aphid therefrom. One day later, the number of surviving insects was measured, and the insect killing rate (indicated as the “insect killing rate II” in Table 4) was calculated by the following equation. It means that the effect of agricultural chemical (insecticidal effect) is high as the value of the insect killing rate is high. Insect killing rate (%)=(the number of surviving insects in non-treated area−the number of surviving insects in treated area)/the number of surviving insects in non-treated area×100
# Kanzawa spider mite = test: Acaricidal test; conditions: Kanzawa spider mite on kidney bean, 3 days after spraying
# Description: A kidney bean was grown in a 12 cm pot until to be a 5-leaf stage. Thirty individuals of Kanzawa spider mite per one plant were implanted for three repetitions. To 1 L of water, the insecticide was mixed such that the concentration of each of the compounds at the time of spraying becomes the amount indicated in Table 4 and Table 6, thereby preparing the spray liquid of insecticide. This spray liquid was sprayed on the leaf surface of the kidney bean attached with Kanzawa spider mites in the application amount indicated in Table 4 and Table 6. After air drying, the kidney bean sprayed with the spray liquid was covered with a wire gauze cylinder. Three days later, the number of surviving mites was measured, and the mite killing rate was calculated by the following equation. It means that the effect of agricultural chemical (acaricidal effect) is high as the value of the mite killing rate is high. Mite killing rate (%)=(the number of surviving mites in non-treated area−the number of surviving mites in treated area)/the number of surviving mites in non-treated area×100
# [1] = application amount 100 L/10 a, (A)+(B) concentration 1000 ppm
Substance,Insect killing rate I (planthopper; [1]) [%],Insect killing rate II (cotton aphid; [1]) [%],Mite killing rate (Kanzawa spider mite; [1]) [%],"Insect killing rate I (planthopper; 100 L/10 a, 2000 ppm) [%]","Insect killing rate II (cotton aphid; 100 L/10 a, 2000 ppm) [%]","Mite killing rate (Kanzawa spider mite; 100 L/10 a, 2000 ppm) [%]"
Monocapric acid monoglycerine [compound 7],46,57,40,–,–,–
Octyl alcohol [compound 22],–,–,–,24,34,22

# Reference: US20150051278A1, “METHOD OF EXTERMINATING HARMFUL INSECT” (KAO CORPORATION, priority 2012, published 2015)
